Results: patent publication US11505556B2, “Halogenated derivatives of morphinans and uses thereof” (Xalud Therapeutics, Inc., priority 2017, dated 2022)

Legend:
[1] = test system: CCI neuropathic pain (mechanical allodynia); experiment: Rat chronic constriction injury (CCI) neuropathic pain model, SC dosing, von Frey testing (Example 1); assay type: in vivo
Experimental: Pathogen-free adult male Sprague-Dawley rats (300-375 g; Harlan Labs, Madison, Wis.) were used in all experiments. Rats were housed in temperature (23+/−3° C.) and light (12 hour:12 hour, light:dark cycle; lights on at 0700) controlled rooms with standard rodent chow and water available ad libitum.
Chronic Constriction Injury (CCI) model: Neuropathic pain was induced using the CCI model of partial sciatic nerve injury (see, e.g., Bennett and Xie, […]). CCI was performed at the mid-thigh level of the left hindleg as previously described in Milligan, et al., Eur. J. Neuroscience, 20:2294-2302 (2004). In brief, four sterile chromic gut sutures (cuticular 4-0 chromic gut, FS-2; Ethicon, Somerville, N.J., USA) were loosely tied around the gently isolated sciatic nerve. Drug testing was delayed until 10-14 days after surgery to ensure that neuropathic pain was well established prior to the initiation of drug delivery.
XT-203 CCI SC: Rats (10/group) were subjected to CCI neuropathic pain model surgery. After the pain state was established, they were dosed 3× per day for 5 days with XT-203 or a positive control (gabapentin) dose. Behavior testing for pain responses by von Frey testing was used to establish pain thresholds in the affected hind paw. Because dosage was 3×/day, behavior testing was performed after the first and second dose of day 1 dosing (1.1, 1.2) and after the first and second dose of day 5 dosing (5.1, 5.2). […]
Von Frey Test for Mechanical Allodynia: Rats received at least three 60 min habituations to the test environment prior to behavioral testing. Response thresholds to calibrated light pressure stimuli applied to the plantar surface of the paws was measured using the von Frey test. […] Briefly, rats were first assessed for baseline response thresholds (average of three consecutive withdrawal assessments) from each paw at 15 min intervals, and the average response threshold from both feet was calculated. […] Allodynia was assessed pre- and post-drug delivery.

[2] = test system: CCI neuropathic pain (mechanical allodynia); experiment: Rat CCI model, oral and subcutaneous phases (Study R042); assay type: in vivo
Experimental: Rat chronic constriction injury model-Oral and subcutaneous (+)-NTX and XT-203: An efficacy study was conducted in the rat chronic constriction injury (CCI) model (Study R042). The study design comprised two phases. A five-day period of oral (PO) dosing and behavioral testing was followed by a five-day period of subcutaneous (SC) dosing, with a two-day washout period between these periods. Dosing on each day was performed three times a day (TID). Behavioral testing for mechanical allodynia was performed on the first and fifth days of dosing, at three times on those days: before the first dose of the day, 30 minutes after the first dose of the day, and 30 minutes after the second dose of the day. Thus, day 5 testing is designated as pre5.1 (before the first dose of the day), 5.1 (fifth day, after first dose) or 5.2 (fifth day, after second dose). On day 5 of the subcutaneous dosing phase, a second testing period was introduced 60 minutes after the second dose. (+)-NTX (6, 18, and 60 mg/kg) and XT-203. Mechanical allodynia was tested manually, using the Chaplan up-down testing method. The results are shown in FIGS. 10A and 10B, with the oral (PO) phase presented as the first pair of graphs. After the two-day washout, the subcutaneous (SC) phase was carried out with the results shown in the graphs at FIGS. 10C and 10D.
The CCI model was well established in this study, with allodynic response thresholds between 2 and 3 grams (presurgical baseline thresholds at 15 g, not shown). […] This is especially remarkable given the extremely rapid metabolism and pharmacokinetics of (+)-NTX (see FIG. 9). Here, the dampening of efficacy due to lack of significant amounts of parent compound is particularly evident. Thus, the appropriate dose-ranging conditions in animal models should reflect (+)-NTX serum levels during efficacy testing, to match pharmacokinetics with pharmacodynamics. […] Efficacy is only observed after the first dose on day 5. Thus, changes designed to improve compound stability do provide improved efficacy.

[3] = test system: bone fracture pain, paw withdrawal threshold; experiment: Mouse bone fracture model, intraperitoneal; assay type: in vivo; details: for effect on PWT in mouse fracture pain model: IP, morphine 1, 2, 3, 5 mg/kg, XT-203 6, 10, 18, 30 mg/kg, (+)-NTX 6, 18, 30, 60 mg/kg, dose-dependent; for adverse effects during observation: mouse fracture model, all dose groups
Excerpt: Each group had n=10 mice.

Mouse hepatocytes = experiment: Hepatocyte elimination of parent compound

SMILES | effect on pain threshold (von Frey), data not shown ([1]; SC) | efficacy on mechanical allodynia, medium and high doses ([2]; (+)-NTX 18 and 60 mg/kg TID, PO d1, SC d1, SC d5 panels) | effect on PWT in mouse fracture pain model [3] | adverse effects during observation [3] | glucuronidation of parent compound (Mouse hepatocytes; mouse hepatocytes, compared with XT-203) | effect on pain threshold (von Frey), day 1 dosing ([1]; XT-203 19 mg/kg SC 3x per day, FIG. 5A) | effect on pain threshold (von Frey), day 5 testing ([1]; XT-203 19 mg/kg SC 3x per day, FIG. 5B) | reversal of allodynia at pre5.1 (before first dose of day 5) ([2]; XT-203 18 mg/kg SC TID) | efficacy on mechanical allodynia, subcutaneous, day 5 ([2]; XT-203 18 mg/kg SC TID, after the first dose on day 5) | Parent compound hepatocyte elimination half-life, Mouse (Mouse hepatocytes; cultured mouse hepatocytes) [min]
O=C1CC[C@]2(O)[C@@H]3Cc4ccc(O)c5c4[C@]2(CCN3CC2CC2)[C@@H]1O5 [(+)-naltrexone, reference compound] | not effective | some efficacy | increased the PWT | No significant adverse effects | significantly higher glucuronidation |  |  |  |  | 
COc1ccc2c3c1O[C@@H]1C(F)CCC4[C@H](C2)N(CC2CC2)CC[C@]341 (stereo partly drawn) [XT-203] |  |  | increased the PWT | No significant adverse effects |  | minimal effect | substantial effect | does not show reversal of allodynia | some significant efficacy | 26.28
